Results from US10202372B2, “Trisubstituted pyrido[2,3-D]pyrimidines, methods for preparing same and therapeutic uses thereof” (CENTRE NATIONAL DE LA RECHERCHE SCIENTIFIQUE (C.N.R.S), priority 2012, dated 2019).

Experiments:
MDA = assay: Toxicity test on cells, MDA; format: cell-based; settings: 48 hours of treatment, Hoechst nuclei staining
Procedure: [The procedure below names another cell line; the source lists this cell line under the same test.] (§1) The compounds according to the invention were also tested on the cell lines HuH7, CaCo-2, HCT116, PC3, NCl, HacaT and Fibroblasts.
(§2) Operating Procedure: The cells were cultivated according to the ECACC recommendations. The toxicity test of the compounds on these cells was conducted as follows: 4×10^3 cells/well were sown in 96 wells. 24 hours after sowing the cells, the cells were exposed to increased concentrations of the compounds (0.1 μM-0.3 μM-0.9 μM-2.7 μM-8.3 μM-25 μM). After 48 hours of treatment, the cells were washed in PBS and bound in a cold ethanol/acetic acid (90/5) mixture for 20 minutes. Next, the nuclei were coloured with […] (Sigma). The acquisition of images and the analysis was carried out by means of a reader Cellomics ArrayScan VTI/HCS (Thermo Scientific).

HacaT = assay: Toxicity test on cells, HacaT; format: cell-based; settings: Homo sapiens, 48 hours of treatment, Hoechst nuclei staining
Procedure: as §1, §2

PC3 = assay: Toxicity test on cells, PC3; format: cell-based; settings: Homo sapiens, PC-3; 48 hours of treatment, Hoechst nuclei staining
Procedure: as §1, §2

NCl = assay: Toxicity test on cells, NCl; format: cell-based; settings: 48 hours of treatment, Hoechst nuclei staining
Procedure: as §1, §2

HUH7 = assay: Toxicity test on cells, HUH7; format: cell-based; settings: Homo sapiens, Huh-7; 48 hours of treatment, Hoechst nuclei staining
Procedure: as §1, §2

Fibroblasts = assay: Toxicity test on cells, Fibroblasts; format: cell-based; settings: Fibroblast; 48 hours of treatment, Hoechst nuclei staining
Procedure: as §1, §2

HCT116 = assay: Toxicity test on cells, HCT116; format: cell-based; settings: Homo sapiens, HCT-116; 48 hours of treatment, Hoechst nuclei staining
Procedure: as §1, §2

PI3Kα = PI3Kα (Homo sapiens, UniProt P42336); assay: PI3Kα kinase activity, Adapta TR-FRET ADP detection; format: biochemical; settings: purified p110α/p85α heterodimer, triplicate; read-out: Kinases IC50 PI3Kα
Procedure: (§3) The activity of the PI3Kα kinase was evaluated by using a purified heterodimer (reference: PV4788 from Invitrogen) consisting of the α catalytic p110 subunit (PIK3CA) and the α regulation p85 subunit (PIK3R1). The assay of the kinase with the kit Adapta™ (reference: PV5099 from Invitrogen) is an enzymatic test based on the detection of ADP, produced during the reaction, by the fluorescence technique TR-FRET. It took place in a 384-well plate and was able to be divided into two phases: an enzymatic reaction phase, and a phase for detecting the ADP level.
(§4) During the enzymatic reaction phase, the following components were mixed in 10 μL of a same well: 2.5 μL of each dilution in series of inhibitors taken up in DMSO and then diluted to 1/25 in the reaction buffer (250 mM HEPES pH 7.5, 500 mM NaCl, 0.15 CHAPS, 5 mM EGTA, 15 mM MgCl2 and 1 mM DTT, ref.: PV5101 from Invitrogen), 2.5 μL of a solution containing PI3K at the optimum concentration (concentration defined according to the optimization step described in the operating procedure of the kit) diluted in the same reaction buffer, and finally, 5 μL of a solution containing 20 μM ATP and 100 μM PIP2 diluted in the reaction buffer. For each inhibitor concentration, the reaction was conducted in three copies (triplicate). The reaction was then incubated for 60 min at room temperature without any stirring in darkness.
(§5) During the phase for detecting ADP, 5 μL of a detection solution containing an anti-ADP antibody labeled with europium (6 nM), a tracer of the Alexa Fluor® 647 type coupled with ADP (30 nM), and EDTA (30 mM, for stopping the kinase reaction) were diluted in the dilution buffer (reference: PV3574 from Invitrogen). After 30 min of incubation at room temperature with stirring (40 rpm) in darkness, the 384-well plates were read in a plate reader Victor V configured for HTRF (Perkin Elmer). The excitation was produced at 340 nm and emission was measured at 665 nm and 615 nm. The inhibition curve was then plotted according to the emission ratio at 665 nm/615 nm versus the inhibitor concentration.
(§6) In order to obtain a linear response of the signal, a titration curve ATP-ADP, corresponding to the conversion % of ATP into ADP, was achieved by varying both of these species while keeping [ADP]+[ATP]=10 μM. The emission ratio at 665 nm/615 nm resulting from this (Y) was plotted versus the conversion % of ATP into ADP (X). The data of this curve were formatted according to a model with three hyperbolic parameters from the following equation: Y=C+A*(1−(X/(B+X))).
(§7) The software package GraphPad™ Prism® thus allows calculation of the parameters A, B and C. A conversion % corresponds to an emission ratio 665 nm/615 nm, this percentage is calculated by using the following equation: Conversion %=B*(C+A−Ratio)/(Ratio−C)
(§8) The three parameters A, B and C having been defined by the preceding equation, the conversion % was therefore able to be plotted versus the inhibitor concentration. The amount of inhibitor required for causing a 50% variation in the % conversion of ATP into ADP corresponds to the IC50 value of the inhibitor.

CaCo2 = assay: Toxicity test on cells, CaCo2; format: cell-based; settings: Homo sapiens, Caco-2; 48 hours of treatment, Hoechst nuclei staining
Procedure: as §1, §2

PI3Kγ = PI3Kγ (Homo sapiens, UniProt P48736); assay: PI3Kγ kinase activity, Adapta TR-FRET ADP detection; format: biochemical; settings: p110γ catalytic subunit; read-out: Kinases IC50 PI3Kγ
Procedure: as §3, §4, §5, §6, §7, §8
(§9) The activity of the kinase PI3Kγγ (PV4786 from Invitrogen) was evaluated on the p110γγ catalytic subunit (PI3KCG) and that of the kinase PI3Kδδ on the purified heterodimer (PV5273) respectively consisting of the δδ catalytic p110 subunit (PIK3CD) and the α regulation p85 subunit (PIK3R1) by following the same procedure.

mTOR = mTOR (Homo sapiens, UniProt P42345); assay: mTOR kinase activity, LANCE Ultra TR-FRET; format: biochemical; settings: truncated mTOR protein, triplicate; read-out: Kinases IC50 mTOR
Procedure: The activity of the mTOR kinase was evaluated by using a purified truncated protein of the amino acids 1-1359 (reference: PV4753 from Invitrogen). The assay of the activity of the enzyme was carried out with the kit LANCE® Ultra which is an enzymatic test based on the detection of a phosphorylated peptide produced during the reaction, by using the fluorescence technique TR-FRET. It took place in a 384-well plate and was able to be divided into two phases: an enzymatic reaction phase and a phase for detecting the phosphorylated peptide.
During the enzymatic reaction phase, the following components were mixed in 10 μL of a same well: 5 μL of each dilution in series of inhibitors taken up in DMSO and then diluted to 1/25 in the reaction buffer (50 mM HEPES pH 7.5, 0.1% Tween-20, 1 mM EGTA, 10 mM MnCl2, 3 mM MgCl2 and 2 mM of DTT), 2.5 μL of a solution containing mTOR at the optimum concentration (concentration defined according to the optimization step described in the operating procedure of the kit) diluted in the same reaction buffer, and finally 2.5 μL of a solution containing 40 μM of ATP and 200 μM non-phosphorylated peptide diluted in the reaction buffer. For each inhibitor concentration, the reaction was conducted in three copies (triplicate). The reaction was then incubated for 120 min at room temperature without any stirring in darkness.
During the phase for detecting the phosphorylated peptide, 5 μL of an EDTA solution (32 mM) diluted in the dilution buffer (ref.: CR97-100 from Perkin Elmer) were injected into each well. After 5 min of incubation with stirring, 5 μL of a phosphorylated anti-peptide antibody solution labeled with europium (8 nM) and diluted in the same dilution buffer was added into each well. After 60 min of incubation at room temperature with stirring (40 rpm) in darkness, the 384-well plates were read in a plate reader Victor V configured for HTRF (Perkin Elmer). […] The inhibition curve was then plotted according to the fluorescence intensity value at 665 nm versus the inhibitor concentration.
The amount of inhibitor required for causing a 50% variation in the intensity of the signal corresponds to the IC50 value of the inhibitor.

PI3Kδ = PI3Kδ (Homo sapiens, UniProt O00329); assay: PI3Kδ kinase activity, Adapta TR-FRET ADP detection; format: biochemical; settings: purified p110δ/p85α heterodimer; read-out: Kinases IC50 PI3Kδ
Procedure: as §3, §4, §5, §6, §7, §8, §9

Sequence of PI3Kγ (P48736 whole entry): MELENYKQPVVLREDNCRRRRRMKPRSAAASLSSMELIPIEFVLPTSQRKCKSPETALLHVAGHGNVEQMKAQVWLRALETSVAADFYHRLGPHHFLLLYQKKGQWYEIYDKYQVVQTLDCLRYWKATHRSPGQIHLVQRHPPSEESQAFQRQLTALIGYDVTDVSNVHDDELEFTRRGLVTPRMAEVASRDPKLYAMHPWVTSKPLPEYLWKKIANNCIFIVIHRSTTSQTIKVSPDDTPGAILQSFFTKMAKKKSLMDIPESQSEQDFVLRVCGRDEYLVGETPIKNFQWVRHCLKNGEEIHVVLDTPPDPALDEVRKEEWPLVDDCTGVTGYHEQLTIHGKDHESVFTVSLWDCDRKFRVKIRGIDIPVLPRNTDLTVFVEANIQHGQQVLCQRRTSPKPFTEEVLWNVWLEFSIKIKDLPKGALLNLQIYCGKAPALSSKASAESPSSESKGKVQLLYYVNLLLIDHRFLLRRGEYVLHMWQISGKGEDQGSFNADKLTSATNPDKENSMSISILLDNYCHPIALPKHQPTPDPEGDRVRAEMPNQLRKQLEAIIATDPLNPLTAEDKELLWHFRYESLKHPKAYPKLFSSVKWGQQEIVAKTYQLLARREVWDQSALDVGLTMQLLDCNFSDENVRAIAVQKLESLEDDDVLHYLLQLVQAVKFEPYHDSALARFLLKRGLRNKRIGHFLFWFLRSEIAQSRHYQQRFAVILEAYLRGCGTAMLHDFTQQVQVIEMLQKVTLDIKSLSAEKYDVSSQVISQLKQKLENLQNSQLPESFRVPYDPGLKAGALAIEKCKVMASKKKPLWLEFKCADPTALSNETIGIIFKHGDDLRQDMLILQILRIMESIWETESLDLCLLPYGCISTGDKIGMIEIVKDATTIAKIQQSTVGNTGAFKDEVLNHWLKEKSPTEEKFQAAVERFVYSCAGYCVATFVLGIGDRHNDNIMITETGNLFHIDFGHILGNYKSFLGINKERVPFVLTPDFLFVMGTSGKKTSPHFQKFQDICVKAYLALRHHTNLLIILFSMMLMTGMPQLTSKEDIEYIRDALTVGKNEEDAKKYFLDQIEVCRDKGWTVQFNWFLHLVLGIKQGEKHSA
Sequence of mTOR (P42345 1360-2549): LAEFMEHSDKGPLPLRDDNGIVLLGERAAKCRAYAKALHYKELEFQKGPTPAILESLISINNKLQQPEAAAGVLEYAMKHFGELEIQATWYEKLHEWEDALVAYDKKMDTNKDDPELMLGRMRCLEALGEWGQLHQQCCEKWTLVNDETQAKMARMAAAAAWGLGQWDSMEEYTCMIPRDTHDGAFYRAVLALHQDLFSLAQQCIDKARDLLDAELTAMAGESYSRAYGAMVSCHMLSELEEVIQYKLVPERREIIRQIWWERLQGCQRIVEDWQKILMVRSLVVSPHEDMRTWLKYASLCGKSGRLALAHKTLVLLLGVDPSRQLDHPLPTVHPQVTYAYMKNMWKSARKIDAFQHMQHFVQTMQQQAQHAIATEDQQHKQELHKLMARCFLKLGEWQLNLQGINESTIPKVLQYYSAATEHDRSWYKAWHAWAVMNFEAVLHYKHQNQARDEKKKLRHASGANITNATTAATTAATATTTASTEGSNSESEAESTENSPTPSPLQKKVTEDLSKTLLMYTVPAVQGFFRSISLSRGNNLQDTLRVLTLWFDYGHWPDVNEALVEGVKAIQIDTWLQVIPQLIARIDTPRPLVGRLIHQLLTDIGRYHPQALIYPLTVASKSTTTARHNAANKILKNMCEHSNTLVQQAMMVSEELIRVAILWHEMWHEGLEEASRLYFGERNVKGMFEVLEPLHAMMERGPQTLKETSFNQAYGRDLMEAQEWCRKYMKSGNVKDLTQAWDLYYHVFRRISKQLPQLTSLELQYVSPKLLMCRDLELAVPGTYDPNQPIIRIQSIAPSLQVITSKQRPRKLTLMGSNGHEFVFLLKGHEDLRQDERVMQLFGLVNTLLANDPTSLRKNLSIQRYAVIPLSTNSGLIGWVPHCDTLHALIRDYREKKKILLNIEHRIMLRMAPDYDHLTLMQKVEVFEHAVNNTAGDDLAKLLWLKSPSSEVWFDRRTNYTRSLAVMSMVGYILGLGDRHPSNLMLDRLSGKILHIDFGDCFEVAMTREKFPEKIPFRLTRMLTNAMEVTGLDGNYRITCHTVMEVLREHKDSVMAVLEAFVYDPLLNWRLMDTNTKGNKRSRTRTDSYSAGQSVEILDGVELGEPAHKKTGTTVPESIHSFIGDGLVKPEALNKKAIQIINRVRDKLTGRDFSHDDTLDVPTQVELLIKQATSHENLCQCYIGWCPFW
Sequence of PI3Kδ (O00329 whole entry): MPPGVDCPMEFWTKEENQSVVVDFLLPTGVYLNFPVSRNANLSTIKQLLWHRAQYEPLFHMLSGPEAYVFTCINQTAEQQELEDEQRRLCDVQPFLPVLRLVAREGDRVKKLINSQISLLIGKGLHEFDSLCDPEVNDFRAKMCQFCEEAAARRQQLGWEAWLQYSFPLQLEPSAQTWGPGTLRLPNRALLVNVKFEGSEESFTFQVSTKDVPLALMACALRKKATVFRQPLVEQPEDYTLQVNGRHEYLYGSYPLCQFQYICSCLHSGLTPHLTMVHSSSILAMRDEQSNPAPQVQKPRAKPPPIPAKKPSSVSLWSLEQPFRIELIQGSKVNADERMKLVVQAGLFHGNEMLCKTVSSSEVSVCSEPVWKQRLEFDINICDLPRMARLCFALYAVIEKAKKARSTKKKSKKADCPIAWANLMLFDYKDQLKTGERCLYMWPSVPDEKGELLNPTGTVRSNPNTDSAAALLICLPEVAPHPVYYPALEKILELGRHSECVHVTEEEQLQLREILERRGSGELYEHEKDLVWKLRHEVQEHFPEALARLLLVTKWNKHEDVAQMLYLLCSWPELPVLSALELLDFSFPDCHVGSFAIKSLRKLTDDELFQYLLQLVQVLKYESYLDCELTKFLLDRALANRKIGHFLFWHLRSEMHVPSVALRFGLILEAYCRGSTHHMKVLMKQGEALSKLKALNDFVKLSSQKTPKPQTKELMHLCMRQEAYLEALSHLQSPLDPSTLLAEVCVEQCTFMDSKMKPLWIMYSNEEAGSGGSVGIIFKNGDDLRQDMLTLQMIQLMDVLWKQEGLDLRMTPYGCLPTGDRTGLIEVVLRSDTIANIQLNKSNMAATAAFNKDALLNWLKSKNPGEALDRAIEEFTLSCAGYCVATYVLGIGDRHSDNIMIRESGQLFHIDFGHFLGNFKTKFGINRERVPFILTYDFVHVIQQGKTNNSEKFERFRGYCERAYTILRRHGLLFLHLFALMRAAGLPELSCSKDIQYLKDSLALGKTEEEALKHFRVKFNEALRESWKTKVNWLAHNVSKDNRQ
Sequence of PI3Kδ (P27986 whole entry partner): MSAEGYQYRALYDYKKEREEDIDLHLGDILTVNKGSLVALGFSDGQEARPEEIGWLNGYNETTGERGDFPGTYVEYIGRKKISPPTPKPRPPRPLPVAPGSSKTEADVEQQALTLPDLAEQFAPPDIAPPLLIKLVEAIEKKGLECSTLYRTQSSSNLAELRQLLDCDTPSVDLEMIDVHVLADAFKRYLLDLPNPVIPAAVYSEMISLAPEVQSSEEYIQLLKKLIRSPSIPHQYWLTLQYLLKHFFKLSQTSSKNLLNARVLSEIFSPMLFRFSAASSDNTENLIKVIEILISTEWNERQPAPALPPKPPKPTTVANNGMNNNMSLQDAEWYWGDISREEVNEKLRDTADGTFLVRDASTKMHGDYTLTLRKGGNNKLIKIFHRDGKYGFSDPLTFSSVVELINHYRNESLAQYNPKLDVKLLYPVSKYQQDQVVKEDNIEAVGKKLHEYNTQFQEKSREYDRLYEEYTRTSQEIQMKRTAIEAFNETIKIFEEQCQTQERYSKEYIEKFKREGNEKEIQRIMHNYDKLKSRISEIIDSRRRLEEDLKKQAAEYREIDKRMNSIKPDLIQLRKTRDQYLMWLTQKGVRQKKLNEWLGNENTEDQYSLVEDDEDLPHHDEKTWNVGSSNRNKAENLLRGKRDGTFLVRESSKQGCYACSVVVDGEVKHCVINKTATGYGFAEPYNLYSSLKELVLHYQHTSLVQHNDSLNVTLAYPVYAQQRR

Compound | IC50 (MDA) | IC50 (HacaT) | IC50 (PC3) | IC50 (NCl) | IC50 (HUH7) | IC50 (Fibroblasts) | IC50 (HCT116) | IC50 (PI3Kα) | melting point | IC50 (CaCo2) | IC50 (PI3Kγ) | IC50 (mTOR) | IC50 (PI3Kδ)
O=C(Nc1ccc(CO)cc1)Nc1ccc(-c2nc(N3CCOCC3)c3ncc(CN4CCOCC4)cc3n2)cc1 [Compound 78, 1-[4-(hydroxymethyl)phenyl]-3-{4-[4-(morpholin-4-yl)-7-(morpholin-4 ylmethyl)pyrido[3,2-d]pyrimidin-2-yl]phenyl}urea] | 3 µM | 2 µM | 2 µM | 3 µM | 2 µM | > 25 µM | 1 µM | 23 nM | > 260 °C | 12 µM |  |  | 
OCc1cccc(-c2nc(N3CCOCC3)c3ncc(Cl)cc3n2)c1 [Compound 8, (3-(7-Chloro-4-morpholinopyrido[3,2-d]pyrimidin-2-yl)phenyl)methanol] | 20 µM |  | 20 µM | > 25 µM | 25 µM | 2 µM | 5 µM | 32 nM | 157 °C | 3 µM | 431 nM | > 50000 nM | 16 nM
COc1ccc(-c2nc(N3CCOCC3)c3ncc(Cl)cc3n2)cc1 [Compound 9, 4-(7-chloro-2-(4-methoxyphenyl)pyrido[3,2-d]pyrimidin-4-yl)morpholine] | > 25 µM | > 25 µM | > 25 µM | > 25 µM | > 25 µM | > 25 µM | > 25 µM | 6200 nM | 176 °C | > 25 µM | 3100 nM | > 50000 nM | 363 nM
C=Cc1cnc2c(N3CCOCC3)nc(-c3ccc(O)cc3)nc2c1 [Compound 16, 4-(4-Morpholino-7-vinylpyrido[3,2-d]pyrimidin-2-yl)phenol] | > 25 µM | > 25 µM | > 25 µM | > 25 µM | > 25 µM | > 25 µM | > 25 µM | 1600 nM | > 260 °C | > 25 µM | 1700 nM | 370 nM | 2100 nM
O=[N+]([O-])c1ccc(-c2nc(N3CCOCC3)c3ncc(Cl)cc3n2)cc1 [Compound 10, 4-(7-chloro-2-(4-nitrophenyl)pyrido[3,2-d]pyrimidin-4-yl)morpholine] |  |  |  |  |  |  |  |  | 200 °C |  |  |  | 
Oc1ccccc1-c1nc(N2CCOCC2)c2ncc(Cl)cc2n1 [Compound 5, 2-(7-Chloro-4-morpholinopyrido[3,2-d]pyrimidin-2-yl)phenol] | > 25 µM |  | > 25 µM | > 25 µM | > 25 µM | > 25 µM | > 25 µM |  | 212 °C | > 25 µM |  |  | 
Oc1ccc(-c2nc(N3CCOCC3)c3ncc(Cl)cc3n2)cc1 [Compound 7, 4-(7-Chloro-4-morpholinopyrido[3,2-d]pyrimidin-2-yl)phenol] | 25 µM |  | 25 µM | > 25 µM | 25 µM | > 25 µM | > 25 µM | 15200 nM | 253 to 254 °C | 25 µM | > 50000 nM | 184 nM | 1500 nM
O=C(Nc1ccc(-c2nc(N3CCOCC3)c3ncc(CN4CCOCC4)cc3n2)cc1)Nc1cccc(CO)c1 [Compound 80, 1-[3-(hydroxymethyl)phenyl]-3-{4-[4-(morpholin-4-yl)-7-(morpholin-4-ylmethyl)pyrido[3,2-d]pyrimidin-2-yl]phenyl}urea] |  |  |  |  |  |  |  |  | 200 to 202 °C |  |  |  | 
